Common to all, as to type: functional
The species entered for test [1] is Homo sapiens. The experiment in a line: Concentration yielding an amount of cellular protein at the end of the incubation that is the same as at the beginning of the incubation in brain tumor sub panel.
For test [2], the species on record is Homo sapiens. The experiment in a line: Concentration yielding an amount of cellular protein at the end of the incubation that is the same as at the beginning of the incubation in full panel.
The species named for test [3] is Homo sapiens. Description: TGI correlation coefficient value of the compound.
Test [4] is described as follows: Selective rating against brain tumor cell line panel; i selective (**) if (A/B)> 6 and TGI-Corr > 0.8.
Test [5] is described as follows: Selectivity rating against brain tumor cell line panel; i moderatelyselective (*) if 3< (A/B)< 6 and TGI-Corr > 0.8.
A short description of test [6]: Selectivity rating for brain tumor cell line panel; i selective (**) if (A/B)> 6 and TGI-Corr > 0.8.

As for `C=CCCCCn1c2ccccc2c2c(C)c3c[n+](C)ccc3c(C)c21.CC(=O)[O-]`, the TGI concentration is 1.8 µM in test [1] and 2.9 µM in test [2]. In test [3], this molecule returned a TGI correlation coefficient of 0.6.
The corresponding values for `CC(=O)[O-].COc1ccc2[nH]c3c(C)c4cc[n+](C)cc4c(C)c3c2c1` are 2.1 µM, 18 µM and 0.94.
The corresponding values for `CS(=O)(=O)[O-].Cc1c2cc[n+](C)cc2c(C)c2c1[nH]c1ccccc12` are 1 µM, 11 µM and 0.86.
For `CC(=O)[O-].Cc1c2cc[n+](C)cc2c(C)c2c1[nH]c1ccc(O)cc12` [ELLIPTINIUM ACETATE] the same measures were 58 µM, 78 µM and less than 0.5.
Take `CCN(CC)CC[n+]1ccc2c(C)c3[nH]c4ccc(O)cc4c3c(C)c2c1.[Cl-]` [DATELLIPTIUM CHLORIDE]: the TGI concentration in test [1] was 16 µM; in test [2], 34 µM. For the same molecule, the TGI correlation coefficient in test [3] amounted to 0.78.
Consider `COc1ccc2[nH]c3c(C)c4cc[n+](C)cc4c(C)c3c2c1`, for which the Selectivity rating result in test [4] was “Selective”.
On to `Cc1c2ccncc2c(C)c2c1[nH]c1ccccc12` [ELLIPTECINE], for which the results for the TGI concentration in test [1] and in test [2] were 2.9 µM and 3 µM, respectively. This molecule also returned a TGI correlation coefficient in test [3] of less than 0.5.
`CC(=O)[O-].Cc1c2cc[n+](C)cc2c(C)c2c1[nH]c1ccc(Cl)cc12`: the TGI concentration was determined as 4.7 µM in test [1] and 22 µM in test [2]. Also, the Selectivity rating entry in test [5] was “Moderately selective”. Besides, the TGI correlation coefficient in test [3] was found to be 0.85.
Consider `Cc1ccc2[nH]c3c(C)c4ccncc4c(C)c3c2c1`, for which the TGI concentration in test [1] was determined as 3.1 µM; in test [2], 2.7 µM. For the same molecule, the TGI correlation coefficient in test [3] is given as less than 0.5.
For `Cc1c2ccncc2c(C)c2c1[nH]c1ccc(O)cc12` the same measures were 3.4 µM, 2.8 µM and less than 0.5.
For `Cc1c2cc[n+](C)cc2c(C)c2c1[nH]c1ccccc12`, in test [4], the Selectivity rating result is recorded as “Selective”.
Regarding `CC(=O)[O-].Cc1c2cc[n+](C)c(C)c2cc2c1[nH]c1ccccc12`, the TGI concentration stood at 8.9 µM in test [1] and 32 µM in test [2]. This molecule also yielded a TGI correlation coefficient in test [3] of 0.8. Moreover, the Selectivity rating result in test [6] is recorded as “Moderately selective”.
`COc1ccc2[nH]c3c(C)c4cc[n+](C)cc4c(C)c3c2c1.[I-]`: the TGI concentration in test [1] came to 1.1 µM; in test [2], 11 µM. In test [3], this molecule returned a TGI correlation coefficient of 1.
The corresponding values for `COc1ccc2[nH]c3c(C)c4ccncc4c(C)c3c2c1` are 3.6 µM, 3.2 µM and less than 0.5.
For `Cc1c2cc[n+](CCN3CCCCC3)cc2c(C)c2c1[nH]c1ccc(O)cc12` the same measures were 20 µM, 34 µM and 0.71.
For `Cc1nccc2c(C)c3[nH]c4ccccc4c3cc12` the same measures were 3.7 µM, 3.6 µM and less than 0.5.
As to `Cc1c2cc[n+](C)cc2c(C)c2c1[nH]c1ccccc12.[I-]`, the values for the TGI concentration in test [1] and in test [2] were 1.4 µM and 12 µM, respectively. This molecule came in with a TGI correlation coefficient in test [3] of 0.96.
For `CC(=O)[O-].Cc1ccc2[nH]c3c(C)c4cc[n+](C)cc4c(C)c3c2c1`, the TGI concentration in test [1] amounted to 6.9 µM; in test [2], 21 µM. In test [5], the Selectivity rating result is listed as “Moderately selective”. The TGI correlation coefficient in test [3] worked out at 0.83.
Consider `Cc1c2ccncc2c(C)c2c1[nH]c1ccc(Cl)cc12`, for which the figures for the TGI concentration in test [1] and in test [2] were 16 µM and 17 µM, respectively. Also, the TGI correlation coefficient in test [3] is given as less than 0.5.
For `CCN(CC)CC[n+]1ccc2c(C)c3[nH]c4ccccc4c3c(C)c2c1.[Br-]` the same measures were 2.7 µM, 4.2 µM and 0.66.
For `CC(=O)[O-].Cc1c2cc[n+](C)cc2c(C)c2c1oc1ccccc12`, the figures for the TGI concentration in test [1] and in test [2] were 5.5 µM and 20 µM, respectively. Also, the Selectivity rating entry in test [5] was “Moderately selective”. The same molecule registered a TGI correlation coefficient in test [3] of 0.89.
Consider `Cc1c2cc[n+](Cc3ccc(I)cc3)cc2c(C)c2c1[nH]c1ccccc12.[Cl-]`, for which the TGI concentration in test [1] was 54 µM; in test [2], 44 µM. The molecule further gave a TGI correlation coefficient in test [3] of less than 0.5.
For `Cc1c2cc[n+]([O-])cc2c(C)c2c1[nH]c1ccccc12` the same measures were 41 µM, 62 µM and less than 0.5.

The values above are taken from ChEMBL document CHEMBL1127573, “Anticancer specificity of some ellipticinium salts against human brain tumors in vitro” (1994).
